ChEMBL document CHEMBL5154913, “Phenyl Bis-Sulfonamide Keap1-Nrf2 Protein-Protein Interaction Inhibitors with an Alternative Binding Mode” (J Med Chem, 2022)
Values after ≈ are worked out from the molar mass of the structure shown.

Columns and labels:
[1] = Aqueous solubility of the compound at pH 7.4; format: physicochemical; details: aqueous medium
[2] = Permeability of the compound across artificial membrane by IAM binding assay; format: ADME
ARPE-19 = assay: Cytotoxicity against human ARPE-19 cells assessed as reduction in cell viability at 1 uM incubated for 96 hrs by MTT assay relative to control; format: toxicity, cell-based; details: arpe-19, 96 h

COc1ccc(S(=O)(=O)N(CC(=O)O)c2ccc(N(CC(=O)O)S(=O)(=O)c3ccc(OC)cc3)c(OCc3ccccc3)c2)cc1
solubility [1]: 348 µg/mL (≈ 519 µM)

COc1ccc(S(=O)(=O)N(CC(=O)O)c2ccc(N(CC(=O)O)S(=O)(=O)c3ccc(OC)cc3)c(OCc3cccc(OC)c3)c2)cc1
log K [2]: 1.83

COC(=O)[C@]12CCC(C)(C)C[C@H]1[C@H]1C(=O)C=C3[C@@]4(C)C=C(C#N)C(=O)C(C)(C)[C@@H]4CC[C@@]3(C)[C@]1(C)CC2 [BARDOXOLONE METHYL]
Activity (ARPE-19): Toxic
